Assay results taken from patent publication US20210315893A1 (Galapagos NV, priority 2017, published 2021).

Legend:
S1PR2 = target: T1, S1PR2 (Homo sapiens, UniProt O95136); assay: S1PR2 binding assay (competition with radioactively labeled S1P, SpA); conditions: membranes from stable cell line over expressing S1PR2, SpA beads; read-out: S1P2 EC50 (nM), S1PR2 binding EC50
T1 construct: expressed in transfected cells
Summary of the method: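 Competition with [3H]S1P for membranes from a stable S1PR2-overexpressing cell line, 20 μg/well, captured on PVT-WGA SPA beads, in 20 mM Tris pH 7.5, 10 mM MgCl2, 100 mM NaCl, 0.4% fatty-acid-free BSA, 1 mM Na3VO4. 2 h at room temperature, then centrifugation and scintillation counting.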

HFL-1 cells [1] = assay: IL-8 production assay (S1P induced IL-8); assay type: cell-based; conditions: Homo sapiens, HFL1; S1P (1 μM) induced IL-8 in HFL-1 cells, starvation medium without HSA; read-out: IL8 EC50
Summary of the method: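 HFL-1 human fetal lung fibroblasts were starved in F12K/1% FBS, then given compound for 1 h (10-point, 1/3 dilution, 30 μM top, 0.3% DMSO final). S1P was added at 1 μM final for 16–24 h at 37 °C, and secreted IL-8 in supernatant quantified by ELISA.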

HFL-1 cells [2] = assay: IL8 assay in the presence of Human Serum Albumin; conditions: HFL1, read-out: HSA IL8 EC50
[3] = target: T2, human GPCR sphingosine 1-phosphate receptor 1 (Homo sapiens, UniProt P21453); assay: S1PR1 selectivity Ca2+ flux assay (antagonist readout); assay type: cell-based; conditions: antagonist readout, CHO cells overexpressing human S1PR1 and Gq, S1P at EC80 (6 nM); read-out: S1P1 EC50 (nM), S1P1 antagonist EC50
T2 construct: host or cells: CHO
Method: 50 μL of Chinese hamster ovary (CHO) cells stably overexpressing human S1PR1 or S1PR5 are seeded in 384 well sterile microplates (7,500 cells/well or 10,000 cells/well respectively) and are incubated overnight at 37° C. under 5% CO2. Cells are subsequently washed twice with 25 μL/well of starvation medium (F-12 Ham's medium containing 0.1% fatty acid free bovine serum albumin (FAF BSA)). After one h starvation at 37° C., 5% CO2, cells are loaded with 25 μL of Fluo 8 dye diluted in Hank's balanced salt solution (HBSS) with 20 mM Hepes complemented with 5 mM of probenecid following the recommendations of the manufacturer (one h at 37° C., 5% CO2). Dilution series of compounds are prepared in HBSS buffer with 20 mM Hepes and 0.1% BSA (FAF). 10 μL of diluted compound is added to the cells using the FDSS/pCELL and intracellular calcium changes are measured immediately by recording fluorescence during 3 min (agonist readout). The ratio of maximal signal over background before compound injection is used to determine compound response.
After an incubation of 15 min at 37° C., following the agonist readout, the plates are transferred to the FDSS/pCELL reader. […] The ratio of maximal signal over background before S1P injection was used to determine the inhibitory effect ofthe compound.
Raw data obtained in each experiment (ratio of maximal signal over background for calcium mobilization assays) were normalized in percentage of activation (agonist mode) or inhibition (antagonist mode) using positive and negative experiment controls. Each individual plate quality was assessed by evaluation of Z′ factor calculated with raw data using the following equation
Y=bottom+(top−bottom)/(1+(10^(Log IC50−X)*Hillslope)) where X is the logarithm of the concentration of the compound

[4] = target: T3, human GPCR sphingosine 1-phosphate receptor 2 (Homo sapiens, UniProt O95136); assay: S1PR2 antagonist Ca2+ flux assay; assay type: cell-based; conditions: antagonist mode, CHO-S1PR2 cells, S1P at EC80, Ca2+ fluorescence; read-out: S1P2 EC50 (nM), S1P2 antagonist EC50
T3 construct: host or cells: CHO
Summary of the method: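 CHO cells stably expressing human S1PR2, serum-starved 1 h, Fluo8-loaded; compound-evoked Ca2+ fluorescence read 3 min (agonist mode), then after 15 min S1P at EC80 added and read 3 min (antagonist mode). Max/baseline fluorescence ratios normalised to vehicle and S1P EC100 or EC50 controls; EC50 derived.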

T3 sequence (O95136 whole entry): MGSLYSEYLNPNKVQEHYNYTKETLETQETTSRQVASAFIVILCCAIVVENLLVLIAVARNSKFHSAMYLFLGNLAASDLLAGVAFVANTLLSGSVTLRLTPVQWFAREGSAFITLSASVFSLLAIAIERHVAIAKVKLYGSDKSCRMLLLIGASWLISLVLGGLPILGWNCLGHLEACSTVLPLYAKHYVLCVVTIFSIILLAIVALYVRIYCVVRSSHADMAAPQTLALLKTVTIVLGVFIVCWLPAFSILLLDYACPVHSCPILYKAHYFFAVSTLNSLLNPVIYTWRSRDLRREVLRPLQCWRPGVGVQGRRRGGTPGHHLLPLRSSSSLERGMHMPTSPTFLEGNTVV
T1 sequence (O95136 whole entry): as above
T2 sequence (P21453 whole entry): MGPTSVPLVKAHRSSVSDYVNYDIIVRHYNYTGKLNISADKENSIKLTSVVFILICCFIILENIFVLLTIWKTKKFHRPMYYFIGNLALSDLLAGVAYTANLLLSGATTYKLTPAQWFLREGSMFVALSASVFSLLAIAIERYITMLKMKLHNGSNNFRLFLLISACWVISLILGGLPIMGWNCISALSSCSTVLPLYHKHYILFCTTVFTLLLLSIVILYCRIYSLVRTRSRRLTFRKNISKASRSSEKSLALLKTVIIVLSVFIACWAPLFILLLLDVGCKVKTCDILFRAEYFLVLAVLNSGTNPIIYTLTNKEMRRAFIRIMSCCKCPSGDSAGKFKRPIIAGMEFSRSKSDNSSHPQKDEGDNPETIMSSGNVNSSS

SMILES | EC50 (S1PR2) | EC50 (HFL-1 cells [1]) | EC50 (HFL-1 cells [2]) | EC50 [3] | EC50 [4]
CN1CCC(n2nc(Cc3nc4cc(OCC(F)F)c(C#N)cc4[nH]3)c3ccccc3c2=O)C1 (centres unmarked) [Compound 72, 6-(2,2-difluoroethoxy)-2-[[3-(1-methylpyrrolidin-3-yl)-4-oxo-phthalazin-1-yl]methyl]-3H-benzimidazole-5-carbonitrile] | 3090 nM | 5180 nM | 1950 nM | ≥ 19800 nM | 
O=C(O)Cn1nc(Cc2nc3cc(Cl)c(OC(F)(F)F)cc3[nH]2)c2c(c1=O)CCCC2 [Compound 113, 2-[4-[[5-chloro-6-(trifluoromethoxy)-1H-benzimidazol-2-yl]methyl]-1-oxo-5,6,7,8-tetrahydrophthalazin-2-yl]acetic acid] | 154 nM | 418 nM | 917 nM | ≥ 19900 nM | 23.7 nM
O=C(Cn1nc(Cc2nc3cc(OC(F)(F)F)c(Cl)cc3[nH]2)c2ccccc2c1=O)NC1CCS(=O)(=O)CC1 [Compound 141, 2-[4-[[6-chloro-5-(trifluoromethoxy)-1H-benzimidazol-2-yl]methyl]-1-oxo-phthalazin-2-yl]-N-(1,1-dioxothian-4-yl)acetamide] | 70.6 nM | 130 nM |  | ≥ 19900 nM | 21.1 nM
CN(C)[C@@H]1CCN(C(=O)Cn2nc(Cn3cc4cc(OCC(F)F)c(C#N)cc4n3)c3ccccc3c2=O)C1 [Compound 206] | 3620 nM | 2990 nM | 2630 nM |  | ≥ 19800 nM
CC1(O)CCN(C(=O)Cn2nc(Cc3cn4cc(OCC5CC5)c(C#N)cc4n3)c3ccccc3c2=O)C1 (centres unmarked) [Compound 210, 6-(cyclopropylmethoxy)-2-[[3-[2-(3-hydroxy-3-methyl-pyrrolidin-1-yl)-2-oxo-ethyl]-4-oxo-phthalazin-1-yl]methyl)imidazo[1,2-a]pyridine-7-carbonitrile] | 233 nM | 356 nM | 188 nM |  | 102 nM
N#Cc1cc2[nH]c(Cc3nn(CC(=O)N4CCC(C#N)CC4)c(=O)c4ccccc34)nc2cc1OCC(F)F [Compound 219, 2-[[3-[2-(4-cyano-1-piperidyl)-2-oxo-ethyl]-4-oxo-phthalazin-1-yl]methyl]-6-(2,2-difluoroethoxy)-3H-benzimidazole-5-carbonitrile] | 265 nM | 177 nM | 607 nM |  | 32.4 nM
CN(CCS(C)(=O)=O)C(=O)Cn1nc(Cc2nc3cc(OCC(F)F)c(C#N)cc3[nH]2)c2ccccc2c1=O [Compound 220, 2-[4-[[6-cyano-5-(2,2-difluoroethoxy)-1H-benzimidazol-2-yl)methyl]-1-oxo-phthalazin-2-yl]-N-methyl-N-(2-methylsulfonylethyl)acetamide] | 320 nM | 102 nM | 325 nM |  | 52.6 nM
O=c1c2ccccc2c(Cn2cc3cc(OCC4CC4)c(Cl)cc3n2)nn1C1CNC1 [compound 2, 2-(azetidin-3-yl)-4-[[6-chloro-5-(cyclopropyl-methoxy)indazol-2-yl]methyl]-phthalazin-1-one] | 75.7 nM | 38.8 nM | 166 nM |  | 81.6 nM
CC(=O)N1CCCC1Cn1nc(Cc2nc3cc(Cl)c(OC(F)(F)F)cc3[nH]2)c2ccccc2c1=O (centres unmarked) [compound 14, 2-[(1-acetylpyrrolidin-2-yl)-methyl]-4-[[5-chloro-6-(tri-fluoromethoxy)-1H-benzimidazol-2-yl]methyl]-phthalazin-1-one] | 4950 nM | 1450 nM | 10000 nM |  | 615 nM
O=C(O)Cc1nn(Cc2cc3cc(Cl)c(OCC4CC4)cc3[nH]2)c2ccccc2c1=O [compound 16, 2-[1-[[5-chloro-6-(cyclopropyl-methoxy)-1H-indol-2-yl]-methyl]-4-oxo-cinnolin-3-yl]-acetic acid] | 29.9 nM | 8.49 nM | 51.4 nM |  | 4.58 nM

More lines, in order of falling EC50 (HFL-1 cells [1]), values ahead:

EC50 (S1PR2) | EC50 (HFL-1 cells [1]) | EC50 (HFL-1 cells [2]) | EC50 [3] | EC50 [4] | SMILES
21900 nM | 29900 nM | 3030 nM |  | ≥ 19800 nM | CN(C)[C@H]1CCN(C(=O)Cn2nc(Cn3cc4cc(OCC(F)F)c(C#N)cc4n3)c3ccccc3c2=O)C1 [Compound 207, 5-(2,2-difluoroethoxy)-2-[[3-[2-[(3S)-3-(dimethylamino)pyrrolidin-1-yl]-2-oxo-ethyl]-4-oxo-phthalazin-1-yl]methyl]indazole-6-carbonitrile]
7680 nM | 2640 nM | 9070 nM |  | 13200 nM | N#Cc1cc2nn(Cc3nn(CC(=O)N4CCOCC4)c(=O)c4ccccc34)cc2cc1OCC(F)F [Compound 205, 5-(2,2-difluoroethoxy)-2-[[3-(2-morpholino-2-oxo-ethyl)-4-oxo-phthalazin-1-yl]methyl]indazole-6-carbonitrile]
343 nM | 1020 nM | 1940 nM |  | 148 nM | CC(C)(C)NC(=O)Cn1nc(Cc2nc3cc(OCC(F)F)c(C#N)cc3[nH]2)c2c(c1=O)CCCC2 [Compound 203, N-tert-butyl-2-[4-[[6-cyano-5-(2,2-difluoroethoxy)-1H-benzimidazol-2-yl]methyl]-1-oxo-5,6,7,8-tetrahydrophthalazin-2-yl]acetamide]
 | 541 nM | 1640 nM | ≥ 19900 nM |  | O=C(O)Cn1nc(Cc2nc3cc(OC(F)(F)F)c(Cl)cc3[nH]2)c2ccccc2c1=O [Compound 112, 2-[4-[[6-chloro-5-(trifluoromethoxy)-1H-benzimidazol-2-yl]methyl]-1-oxo-phthalazin-2-yl]acetic acid]
365 nM | 127 nM | 387 nM |  | 45.8 nM | CS(=O)(=O)C1CCN(C(=O)Cn2nc(Cc3nc4cc(OCC(F)F)c(C#N)cc4[nH]3)c3ccccc3c2=O)C1 (centres unmarked) [Compound 221, 6-(2,2-difluoroethoxy)-2-[[3-[2-(3-methylsulfonylpyrrolidin-1-yl)-2-oxo-ethyl]-4-oxo-phthalazin-1-yl]methyl]-3H-benzimidazole-5-carbonitrile]
 | 60.7 nM | 5710 nM | ≥ 19800 nM | 22.2 nM | O=C(O)C1CCC1n1nc(Cn2cc3cc(OCC4CC4)c(Cl)cc3n2)c2ccccc2c1=O (centres unmarked) [Compound 91, 2-[4-[[6-chloro-5-(cyclopropylmethoxy)indazol-2-yl]methyl]-1-oxo-phthalazin-2-yl]cyclobutanecarboxylic acid]
117 nM | 49.2 nM | 159 nM |  | 18.2 nM | N#Cc1cc2[nH]c(Cc3nn(CC(=O)N4CCC5(C4)CC5(F)F)c(=O)c4ccccc34)nc2cc1OCC(F)F (centres unmarked) [Compound 235, 2-[[3-[2-(2,2-difluoro-5-azaspiro[2.4]heptan-5-yl)-2-oxo-ethyl]-4-oxo-phthalazin-1-yl]methyl]-6-(2,2-difluoroethoxy)-3H-benzimidazole-5-carbonitrile]
210 nM | 28.8 nM | 562 nM |  | 16.8 nM | CC1(C)CCN(C(=O)Cn2nc(Cc3nc4cc(OCC(F)F)c(C#N)cc4[nH]3)c3ccccc3c2=O)C1 [Compound 233, 6-(2,2-difluoroethoxy)-2-[[3-[2-(3,3-dimethylpyrrolidin-1-yl)-2-oxo-ethyl]-4-oxo-phthalazin-1-yl]methyl]-3H-benzimidazole-5-carbonitrile]
 | 26 nM |  | ≥ 19900 nM |  | COc1cc2nc(Cc3nn(CC(=O)O)c(=O)c4ccccc34)[nH]c2cc1Cl [Compound 136, 2-[4-[(6-chloro-5-methoxy-1H-benzimidazol-2-yl)methyl]-1-oxo-phthalazin-2-yl]acetic acid]
